Source: patent US20240108610A1, “RECTAL ADMINISTRATION OF ROFLUMILAST FOR THE TREATMENT OF CROHN'S DISEASE” (King Abdulaziz University, priority 2022, published 2024)

Experiments:
Type in all cases: in vivo, rat
[1] = tested on: trinitrobenzenesulfonic acid (TNBS)-induced colitis; assay: Disease activity score in TNBS-induced chronic colitis; settings: oral, once daily for 15 days; sulfasalazine 500 mg/kg, roflumilast 5 mg/kg; vs TNBS group
Description: Chronic colitis was induced by weekly rectal injections of increasing doses of TNBS over 6 weeks (15, 30, 45, 60, 60, and 60 mg from day 0 to day 35), as previously described (4,12). Briefly, after food deprivation for 24 h, rats were anesthetized with an intraperitoneal injection of 1% isoflurane. TNBS was dissolved in ethanol (50%) and instilled into the colon using a cannula (0.25 mL), and then the rats were held upside down for 3 min to prevent escape of the intracolonic TNBS. Roflumilast was dissolved in dimethyl sulfoxide and diluted in 0.5% carboxymethyl cellulose sodium to a final concentration of 5.0 mg·kg^−1·day^−1 as previously described (13). […] At the end of the treatment period, the rats were evaluated with the colitis activity score. […] At the end of the 15-day treatment period, the rats were sacrificed by cervical dislocation, and the colon was isolated, cleaned of feces, and measured for weight and length. Colonic myeloperoxidase (MPO) activity and glutathione (GSH) and malonaldehyde (MDA) levels were measured. […] The colitis activity index was determined to evaluate the activity of intestinal inflammation as previously described with a slight modification (16). […]

KI-67 = KI-67 immunostaining of colonic sections
Description: (§1) Chronic colitis was induced by weekly rectal injections of increasing doses of TNBS over 6 weeks (15, 30, 45, 60, 60, and 60 mg from day 0 to day 35), as previously described (4,12). Briefly, after food deprivation for 24 h, rats were anesthetized with an intraperitoneal injection of 1% isoflurane. TNBS was dissolved in ethanol (50%) and instilled into the colon using a cannula (0.25 mL), and then the rats were held upside down for 3 min to prevent escape of the intracolonic TNBS. Roflumilast was dissolved in dimethyl sulfoxide and diluted in 0.5% carboxymethyl cellulose sodium to a final concentration of 5.0 mg·kg^−1·day^−1 as previously described (13). Five groups of rats (n=8) were established: normal control (NC group), TNBS-treated (TNBS group, positive control), and three TNBS-treated groups that received oral sulfasalazine (SS group, 500 mg/kg) (14), oral roflumilast (by gastric gavage, OR group, 5 mg/kg), or rectal roflumilast (RR group, 5 mg/kg). Treatments were administered once daily in a volume of 200 μL for 15 days starting 48 h after the induction of colitis (from day 37) (15), and the control rats received equal amounts of vehicle. At the end of the treatment period, the rats were evaluated with the colitis activity score. To detect the effects of the treatments on systemic inflammatory processes, blood was collected for measurements of the proinflammatory mediators TNF-α, IL-2, and IL-6. At the end of the 15-day treatment period, the rats were sacrificed by cervical dislocation, and the colon was isolated, cleaned of feces, and measured for weight and length. Colonic myeloperoxidase (MPO) activity and glutathione (GSH) and malonaldehyde (MDA) levels were measured. The colon was examined macroscopically for gross changes and microscopically in sections stained with hematoxylin and eosin (H&E), Masson trichrome, and Periodic Acid Schiff (PAS) stains as well as KI-67 and TNF-α immunostaining. […] This primary antibody was detected using avidin-biotin peroxidase detection solution (Dako), and the signal was visualized using diaminobenzidine. […]

TNF-α = TNF-α immunostaining of colonic sections
Description: as §1

[2] = oral, once daily for 15 days, sulfasalazine 500 mg/kg, roflumilast 5 mg/kg
[3] = rectal, 5 mg/kg once daily for 15 days

SMILES | Disease activity score [1] | KI-67 immunoexpression in the mucosa (KI-67; [2]) | KI-67 immunoexpression in the mucosa (KI-67; [3]) | TNF-α immunoexpression in the mucosa (TNF-α; [2]) | TNF-α immunoexpression in the mucosa (TNF-α; [3])
O=C(Nc1c(Cl)cncc1Cl)c1ccc(OC(F)F)c(OCC2CC2)c1 [roflumilast] | decreased the score more than rectal roflumilast | mildly positive reactions | very mild positive reactions | moderately positive reactions | strong positive reactions
O=C(O)c1cc(/N=N/c2ccc(S(=O)(=O)Nc3ccccn3)cc2)ccc1O [sulfasalazine] | greatest decrease | moderately positive reactions | – | very faint positive reactions | –
